Assay results: patent US20020081574A1, “Methods for identifying inhibitors of helicase C virus” (priority 1996, published 2002)

Assays:
HCV NS3 RNA helicase = target: T1, HCV NS3 RNA helicase (Hepatitis C virus genotype 1a, UniProt P27958); format: biochemical; conditions: for helicase activity levels reduced when substituting for Mn^+2: divalent cation tested at 3 mM
T1 construct: derived from the full length, native polypeptide (residues 1027-1657); made in house; host or cells: Spodoptera frugiperda Sf9 cells, recombinant baculovirus bacNS3-5B (polyprotein residues 1027-3011 expressed and processed)

HCV = conditions: cited from earlier work

T1 sequence (P27958 1027-1657): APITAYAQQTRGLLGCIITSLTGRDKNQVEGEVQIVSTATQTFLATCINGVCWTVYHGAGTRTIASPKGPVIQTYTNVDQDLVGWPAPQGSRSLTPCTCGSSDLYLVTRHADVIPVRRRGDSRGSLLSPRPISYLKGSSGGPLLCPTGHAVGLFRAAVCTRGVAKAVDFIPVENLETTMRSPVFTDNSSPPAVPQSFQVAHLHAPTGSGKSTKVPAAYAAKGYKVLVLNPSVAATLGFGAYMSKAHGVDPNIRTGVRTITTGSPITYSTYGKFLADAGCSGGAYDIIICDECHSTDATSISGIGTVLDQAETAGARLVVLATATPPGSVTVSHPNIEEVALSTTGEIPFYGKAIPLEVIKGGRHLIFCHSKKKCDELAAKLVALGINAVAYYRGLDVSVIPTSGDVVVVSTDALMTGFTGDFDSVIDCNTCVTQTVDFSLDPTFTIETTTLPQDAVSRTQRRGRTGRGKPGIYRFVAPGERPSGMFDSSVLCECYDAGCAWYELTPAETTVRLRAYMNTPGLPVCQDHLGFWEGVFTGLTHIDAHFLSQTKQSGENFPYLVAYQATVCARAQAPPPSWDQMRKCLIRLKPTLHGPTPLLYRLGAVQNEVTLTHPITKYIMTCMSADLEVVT

[Ca+2] [Ca^+2]
helicase activity levels reduced when substituting for Mn^+2 (HCV NS3 RNA helicase): 3 fold

[Cu+2] [Cu^+2]
helicase activity levels reduced when substituting for Mn^+2 (HCV NS3 RNA helicase): 7 fold

[K+] [K^+]
effect of monovalent cations on HCV NS3 helicase activity (HCV NS3 RNA helicase): inhibit

[Na+] [Na^+]
effect of monovalent cations on HCV NS3 helicase activity (HCV NS3 RNA helicase): inhibit

[Zn+2] [Zn^+2]
helicase activity levels reduced when substituting for Mn^+2 (HCV NS3 RNA helicase): 2 fold

interferon alpha [IFN-α]
improved serum liver enzyme response (HCV; IFN treatment): 20-40 % of patients
sustained improvement of aminotransferase levels (HCV; responders): 10-20 % of patients
